Data from BigSolDB 2.1.

CN(C/C=C/C#CC(C)(C)C)Cc1cccc2ccccc12.Cl
solubility (mole fraction)
Settings	in ethanol	in ethyl acetate	in methanol	in n-propanol
278.15 K	0.0187	0.0022	0.0398	0.0187
280.65 K	0.0197	0.00255	0.0411	0.0193
283.15 K	0.0207	0.00304	0.0424	0.02
285.65 K	0.0217	0.0036	0.0439	0.0206
288.15 K	0.0229	0.00417	0.0453	0.0214
290.65 K	0.0241	0.00482	0.047	0.0221
293.15 K	0.0254	0.00557	0.0486	0.0228
295.65 K	0.0266	0.00626	0.0502	0.0237
298.15 K	0.0279	0.00715	0.0518	0.0245
300.65 K	0.0293	0.00821	0.0536	0.0254
303.15 K	0.0309	0.00919	0.0554	0.0262
305.65 K	0.0326	0.0105	0.0572	0.0271
308.15 K	0.0342	0.0119	0.059	0.028
310.65 K	0.036	0.0133	0.061	0.0291
313.15 K	0.0379	0.015	0.063	0.0301
